Data from article PMC9979163, “Discovery and functional characterization of N-(thiazol-2-yl)-benzamide analogs as the first class of selective antagonists of the Zinc-Activated Channel (ZAC)” (Biochemical pharmacology, 2021).

Key:
Assay type in all cases: cell-based
hα1β2γ2s GABAAR = hα1β2γ2s GABAAR (Homo sapiens, UniProt P14867+P18507+P47870); assay: TEVC selectivity, hα1β2γ2s GABAAR in oocytes; conditions: 30 μM, 30 s preapplication, 30 μM GABA (EC20–EC40)
Procedure: The cDNAs for the various WT and chimeric CLR subunits were linearized and subsequently transcribed and capped mMessage mMachine T7 RNA transcription kit (Ambion, Waltham, MA). […]
On the day of experiment, all compound dilutions were prepared in a saline solution [115 mM NaCl, 2.5 mM KCl, 10 mM MOPS (pH 7.5), 1.8 mM CaCl2, 0.1 mM MgCl2] and pH adjusted to 7.5 (if needed). […] Currents were recorded using pCLAMP 10 (Molecular Devices, Sunnyvale, CA). […]
In all recordings, the compounds or compound combinations were applied in the bath until the peak current decayed to a steady state (up to 30 sec at the most). […] The functional properties of the modulators at the CLRs were determined by pre-application of the modulator to the perfusate 30 sec and followed by co-application of the modulator and the agonist to the perfusate. […]
Data analysis of the results from the TEVC recordings were performed using Clampfit software version 10.5 (Molecular Devices, Crawley, UK) and GraphPad Prism version 7.0c (GraphPad Software, Inc. La Jolla, CA). […] I-V relationships were analyzed by fitting the curves with a third order polynomial model. […]

h5-HT3A = biological target: T1, h5-HT3A (Homo sapiens, UniProt P46098); assay: FMP assay at h5-HT3A-HEK293 cells; conditions: concentrations up to 100 μM, data not shown
T1 construct: expressed in transfected cells
T1 sequence (P46098 24-478): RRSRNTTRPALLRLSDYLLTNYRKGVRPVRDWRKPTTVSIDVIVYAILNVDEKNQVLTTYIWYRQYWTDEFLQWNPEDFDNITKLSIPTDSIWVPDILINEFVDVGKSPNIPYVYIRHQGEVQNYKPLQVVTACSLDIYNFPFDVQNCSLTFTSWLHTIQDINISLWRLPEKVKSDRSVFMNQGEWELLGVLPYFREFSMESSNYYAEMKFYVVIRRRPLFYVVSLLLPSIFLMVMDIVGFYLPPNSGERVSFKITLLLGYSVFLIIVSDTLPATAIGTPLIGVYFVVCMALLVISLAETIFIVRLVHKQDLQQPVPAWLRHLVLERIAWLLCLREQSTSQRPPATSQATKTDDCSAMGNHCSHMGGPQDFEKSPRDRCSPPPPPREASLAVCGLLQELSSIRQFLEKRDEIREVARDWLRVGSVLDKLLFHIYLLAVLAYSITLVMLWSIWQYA

hEAAT3 = biological target: T2, hEAAT3 (Homo sapiens, UniProt P43005); assay: FMP assay at hEAAT3-HEK293 cells (glutamate-induced response); conditions: concentrations up to 100 μM, data not shown
T2 construct: expressed in transfected cells
T2 sequence (P43005 1-524): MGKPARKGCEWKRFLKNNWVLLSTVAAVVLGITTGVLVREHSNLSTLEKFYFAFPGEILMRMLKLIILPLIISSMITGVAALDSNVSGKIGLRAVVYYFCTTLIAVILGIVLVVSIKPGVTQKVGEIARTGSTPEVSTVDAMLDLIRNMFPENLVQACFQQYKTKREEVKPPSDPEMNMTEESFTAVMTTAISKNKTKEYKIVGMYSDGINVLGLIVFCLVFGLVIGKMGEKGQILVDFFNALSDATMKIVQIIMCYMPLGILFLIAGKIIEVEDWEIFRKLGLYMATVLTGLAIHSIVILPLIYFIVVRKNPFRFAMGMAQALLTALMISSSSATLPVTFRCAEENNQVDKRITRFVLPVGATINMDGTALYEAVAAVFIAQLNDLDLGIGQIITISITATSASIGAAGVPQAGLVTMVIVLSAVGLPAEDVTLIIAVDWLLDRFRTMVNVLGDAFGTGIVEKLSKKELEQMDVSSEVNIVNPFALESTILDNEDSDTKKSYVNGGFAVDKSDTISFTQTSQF

rα3β4-nAChR = biological target: T3, rα3β4-nAChR (Rattus norvegicus, UniProt P04757+P12392); assay: FMP assay at rα3β4-nAChR-HEK293 cells ((S)-nicotine-induced response); conditions: concentrations up to 100 μM, data not shown
T3 construct: expressed in transfected cells
T3 sequence (P04757 26-499): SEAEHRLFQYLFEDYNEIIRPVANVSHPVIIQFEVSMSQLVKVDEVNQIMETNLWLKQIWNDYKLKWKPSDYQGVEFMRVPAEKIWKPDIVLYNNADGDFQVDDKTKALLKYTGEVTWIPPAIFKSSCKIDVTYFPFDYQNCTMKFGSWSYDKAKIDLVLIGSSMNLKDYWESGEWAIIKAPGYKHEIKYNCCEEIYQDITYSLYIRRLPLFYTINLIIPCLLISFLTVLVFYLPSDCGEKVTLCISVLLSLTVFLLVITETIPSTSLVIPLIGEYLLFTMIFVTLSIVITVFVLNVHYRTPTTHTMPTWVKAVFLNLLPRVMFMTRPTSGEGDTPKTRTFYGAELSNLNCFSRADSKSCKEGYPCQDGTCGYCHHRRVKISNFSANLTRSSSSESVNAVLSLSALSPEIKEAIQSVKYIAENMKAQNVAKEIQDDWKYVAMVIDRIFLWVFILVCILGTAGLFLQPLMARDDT
T3 sequence (P12392 22-495 limits assumed): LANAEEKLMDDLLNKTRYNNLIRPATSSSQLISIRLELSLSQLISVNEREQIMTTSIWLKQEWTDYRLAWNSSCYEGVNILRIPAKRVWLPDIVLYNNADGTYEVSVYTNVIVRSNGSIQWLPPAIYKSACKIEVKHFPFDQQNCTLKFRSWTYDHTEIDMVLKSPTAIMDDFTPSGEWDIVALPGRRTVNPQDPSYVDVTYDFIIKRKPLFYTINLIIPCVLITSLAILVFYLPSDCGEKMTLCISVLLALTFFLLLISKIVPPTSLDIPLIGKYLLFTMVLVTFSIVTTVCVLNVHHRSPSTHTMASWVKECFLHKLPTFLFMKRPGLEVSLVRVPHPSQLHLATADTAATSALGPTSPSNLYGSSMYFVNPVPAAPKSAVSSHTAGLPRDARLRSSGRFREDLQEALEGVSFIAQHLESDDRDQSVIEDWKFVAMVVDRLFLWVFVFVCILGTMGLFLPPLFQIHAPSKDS

hα1β2γ2s GABAAR, sequence (P14867 28-456): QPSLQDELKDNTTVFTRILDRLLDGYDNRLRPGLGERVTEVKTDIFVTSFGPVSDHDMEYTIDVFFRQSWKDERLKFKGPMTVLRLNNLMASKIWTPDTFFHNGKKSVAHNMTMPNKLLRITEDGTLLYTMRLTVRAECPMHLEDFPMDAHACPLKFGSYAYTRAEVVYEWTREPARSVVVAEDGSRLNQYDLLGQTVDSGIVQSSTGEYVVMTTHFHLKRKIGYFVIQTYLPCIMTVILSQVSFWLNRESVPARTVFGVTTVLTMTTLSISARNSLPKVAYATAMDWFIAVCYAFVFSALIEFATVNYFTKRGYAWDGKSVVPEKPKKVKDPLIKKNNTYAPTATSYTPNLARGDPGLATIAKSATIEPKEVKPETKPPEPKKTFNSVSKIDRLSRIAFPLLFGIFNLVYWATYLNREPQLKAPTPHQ
hα1β2γ2s GABAAR, sequence (P47870 25-512 limits assumed): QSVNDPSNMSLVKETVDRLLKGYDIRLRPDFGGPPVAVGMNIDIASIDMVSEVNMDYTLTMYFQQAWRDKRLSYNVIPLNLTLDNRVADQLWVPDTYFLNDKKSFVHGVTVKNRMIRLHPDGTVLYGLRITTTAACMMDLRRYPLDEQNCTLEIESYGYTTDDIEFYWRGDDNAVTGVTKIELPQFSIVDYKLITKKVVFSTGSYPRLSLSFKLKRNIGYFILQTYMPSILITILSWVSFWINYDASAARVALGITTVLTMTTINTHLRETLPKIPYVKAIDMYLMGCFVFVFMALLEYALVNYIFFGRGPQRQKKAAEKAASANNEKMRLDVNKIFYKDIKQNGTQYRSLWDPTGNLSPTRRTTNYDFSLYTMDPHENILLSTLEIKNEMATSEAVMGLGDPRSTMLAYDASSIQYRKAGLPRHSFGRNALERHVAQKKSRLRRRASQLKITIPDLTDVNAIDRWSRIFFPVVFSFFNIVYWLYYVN
hα1β2γ2s GABAAR, sequence (P18507 40-467 isoform P18507-1 limits assumed): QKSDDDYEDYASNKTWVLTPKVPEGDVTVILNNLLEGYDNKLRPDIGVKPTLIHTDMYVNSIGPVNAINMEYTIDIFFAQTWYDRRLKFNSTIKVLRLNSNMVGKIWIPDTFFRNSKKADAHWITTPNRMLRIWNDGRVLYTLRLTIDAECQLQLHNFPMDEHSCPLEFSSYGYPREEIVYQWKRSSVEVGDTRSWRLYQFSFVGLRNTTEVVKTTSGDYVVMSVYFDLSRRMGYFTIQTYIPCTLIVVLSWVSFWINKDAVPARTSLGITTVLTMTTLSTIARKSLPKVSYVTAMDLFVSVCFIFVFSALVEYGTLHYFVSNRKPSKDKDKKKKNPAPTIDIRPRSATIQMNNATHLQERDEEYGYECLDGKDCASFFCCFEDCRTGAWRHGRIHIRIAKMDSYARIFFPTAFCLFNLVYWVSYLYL

CC(C)(C)c1csc(NC(=O)c2cccc(F)c2)n1 [5a, N-(4-(tert-butyl)thiazol-2-yl)-3-fluorobenzamide]
Agonist, antagonist or PAM activity (hα1β2γ2s GABAAR): did not display significant activity

COC(=O)c1sc(NC(=O)c2cc(Br)ccc2Cl)nc1C [compound 1, 2-(5-bromo-2-chlorobenzamido)-4-methylthiazole-5-methyl ester]
Effect on 5-HT-induced response (h5-HT3A): did not affect
Effect on glutamate-induced response (hEAAT3): did not affect
Effect on (S)-nicotine-induced response (rα3β4-nAChR): did not affect
